Results from EP0265388A1, “Pyrrole derivatives, therapeutic compositions containing them and their use” (CIBA-GEIGY AG, priority 1986, dated 1988).

Key:
[1] = Delayed-Matching-to-Sample test after Harlow, double-blind against placebo; format: in vivo, Rhesusaffen
Description: In Testmodellen an Rhesusaffen sowie an Ratten konnten weiterhin eine zusätzliche nootrope und antidepressive Wirkungskomponente festgestellt werden. […] F. Harlow et al., J. Comp. Physiol. Psychol. […] Dieser bedeutet diejenige Zeitverzögerung in Sekunden, nach der ein Affe einen Diskriminationserfolg von < 75 % hat. Weiterhin konnten die Vorzögerungszeiten für den Defizitbereich um durchschnittlich 20 Sekunden erhöht werden. Neben diesen nootropen Effekten konnten In diesem Test auch antidepressive Eigenschaften beobachtet werden. […] Die nootrope bzw. antidepressive Wirkungskomponente konnten ebenfalls bei Untersuchungen mit Ratten manifestiert werden. So wurden in einem komplizierten Tieflabyrinth analog dem Modell von J.B. Watson, Animal Education, Contrib. Psychol. Lab. Univ.

[2] = Three-centre double-blind study in inpatients; format: in vivo, Menschen
Description: Ueberraschend ist also die Tatsache, dass das anxiolytische Profil dieses Wirkstoffs auch bei nicht-betarezeptorenblockierend wirkenden Dosierungen sowohl im Tiermodell als auch am Menschen überaus ausgeprägt ist. Letzteres bestätigen Untersuchungen an stationären Patienten.
Entsprechendes ist bei der Verwendung des (+)-Enantiomeren zu erwarten.

[3] = Inhibition of hyperactivity of rats kept in isolation (locomotor and exploratory behaviour, after Weinstock); format: in vivo, Ratten; conditions: isolated rats
Description: Das charakterische anxiolytische Profil von 1-Isopropylamino-3-[o-(pyrrol-1-yl)-phenoxyj-2-propanol ergibt sich beispielsweise aus der Hemmung der Hyperaktivität von Ratten, die in Isolation gehalten werden, gemessen an ihrem lokomotorischen und exploratorischen Verhalten, wobei maximale Effekte bei einer Dosierung von 0,01-0,1 mg/kg p.o. erzielt werden [analog der Methodik von R. Weinstock et al., Psychopharmacologia 30, 241ff. (1973). Die Hyperaktivität von isoliert gehaltenen Ratten konnte dagegen im Falle des Propranolols erste bei einer Dosis von 0,3 mg/kg p.o. maximal gehemmt werden.

[4] = Social conflict test after Jaekel (rank hierarchy); format: in vivo, Rhesusaffen
Description: Insbesondere konnten signifikante anxiolytische Effekte bei Verabreichung des Wirkstoffs in sozialen Konfliktsituationen bei Rhesusaffen festgestellt werden. Die experimentalle Grundlage für diesen Sozialkonflikt-Test analog J. Jaekel in Biologische Psychiatrie (Forschungsergebnisse), W. Kemp (Hrsg.), Springer Verlag, Heidelberg, 1986, ist die hierarchische Rangordnung bei Rhesusaffen. Der relative Rangstatus eines Tieres ist der bestimmende Faktor für interindividuelle Kommunikation, z.B. für Aggression oder wechselseitiges soziales Putzen. Normalerweise werden Tiere mit geringem Rangstatus von höher gestellten Grupenmitgliedern unterdrückt. Diese unterdrückten Tiere ziehen sich in eine soziale Isolierung zurück und vermeiden ängstlich jeden Sozialkontakt. Wiederholte Wirkstoffgaben in Dosen von 0,2 mg/kg p.o. bei Gruppen von 5 bzw. […] Diese Effekte werden als deutliche Anxiolyse angesehen.
Insbesondere konnten signifikante anxiolytische Effekte bei Verabreichung des Wirkstoffs in sozialen Konfliktsituationen bei Rhesusaffen im oben beschriebenen Sozialkonflikt-Test nach Jaekel festgestellt werden. […] Ebenso nahmen sie aktiv Kontakt auf und wurden zu Partnern beim Pflegen, obwohl sie vorher niemals Pflegepartner waren. Diese Effekte wurden sowohl bei Gruppen mit hohem Niveau an Sozialkontakten als auch bei Gruppen mit wenig Pflegepartnerschaften beobachtet. […] Wie zu erwarten wurde dieses ausgeprägte anxiolytische Profil bei den Standard-Beta-Rezeptoren-Blockern Oxprenolol nicht und bei Propanolol in weitaus geringerem Masse erst bei Beta-Rezeptoren blockierenden Dosierungen festgestellt. Dagegen weist das Racemat diesen Effekt in nicht ß-blockierend wirkenden Dosierungen auf.

[5] = Complicated deep maze after Watson; format: in vivo, Ratten
Description: In Testmodellen an Rhesusaffen sowie an Ratten konnten weiterhin eine zusätzliche nootrope und antidepressive Wirkungskomponente festgestellt werden. So bewirkte (+)-1-isopropylamino-3-[o-(pyrrol-1-yl)-phenoxy]-2-propanol in einer Doppelblindstudie bei Rhesusaffen gegen Placebo im "Delayed-Matchingto-Sample-Test" (Zeit-verzögerte-Wahl-nach-Muster) gemäss der Methodik von H. F. Harlow et al., J. Comp. Physiol. Psychol. […] Dieser bedeutet diejenige Zeitverzögerung in Sekunden, nach der ein Affe einen Diskriminationserfolg von < 75 % hat. Weiterhin konnten die Vorzögerungszeiten für den Defizitbereich um durchschnittlich 20 Sekunden erhöht werden. Neben diesen nootropen Effekten konnten In diesem Test auch antidepressive Eigenschaften beobachtet werden. […] Die nootrope bzw. antidepressive Wirkungskomponente konnten ebenfalls bei Untersuchungen mit Ratten manifestiert werden. So wurden in einem komplizierten Tieflabyrinth analog dem Modell von J.B. Watson, Animal Education, Contrib. Psychol. Lab. Univ.

[6] = test system: präsynaptischen Serotonin-1 B-Rezeptors (5-HTIB); assay: Antagonism at the presynaptic serotonin 1B receptor; conditions: for Selektivität (5-HT1B gegenüber 5-HT1A): compared with the racemate
[7] = Geller test (foot-shock induced conflict, lever pressing for food); format: in vivo, Ratten; conditions: for anxiolytische Wirkung im Geller-Test: overall assessment
Description: Das charakteristische anxiolytische Profil von (+)-1-Isopropylamino-3-[o-(pyrrol-1-yl)-phenoxy]-2-propanol ergibt sich beispielsweise aus den Ergebnissen des Geller-Testes, [J. Geller. Psychopharmacologia, 3, S. 374 ff. […] Bei diesem Test werden die Füsse der Verscuchstiere beim Bedienen eines Hebels zur Nahrungsfreigabe periodisch Elektroschocks ausgesetzt. Normalerweise wird nur bei Verabreichung von hohen Dosen an Anxiolytika die Reaktion auf die Bestrafung unterdrückt. Bei einer Gruppe von Ratten, die eine Dosis ab 3 mg/kg p.o. von (+)-1-lsopropylamino-3-[o-(pyrrol-1-yl)-phenoxy]-2-propanol erhalten haben, reagieren bereits ab etwa 80 % der Versuchstiere mit einem markanten Anstieg der Hebelbedienungshäufigkeit während der Schockphase.
Bei einer Gruppe von 29 Ratten, die eine Dosis von 20 mg/kg p.o. von 1-lsopropylamino-3-[o-(pyrrol-1-yl)-phenoxy]-2-propanol erhalten haben, reagieren bereits 50 % der Versuchstiere mit einem markanten Anstieg der Hebelbedienungshäufigkeit während der Schockphase, wobei der Anstieg bei einzelnen Tieren 300 % betrug.

[8] = test system: stratialer Dopamin-Rezeptoren; assay: In vivo 3H-spiperone binding screening model after Bischoff; parameters: species or system Ratten; conditions: rats
Description: Ferner bewirkt (+)-1-Isopropylamino-3-[o-(pyrrol-1-yl)-phenoxy]-2-propanol an Ratten Im Screening-Modell nach S. Bischoff et al., Europ.

[9] = repeated doses of 0,1-0,3 mg/kg p.o., groups of 7 monkeys
[10] = repeated doses of 0,2 mg/kg p.o., groups of 5 or 7 monkeys

## CC(C)NCC(O)COc1ccccc1-n1cccc1 (racemic) [1-Isopropylamino-3-[o-(pyrrol-1-yl)-phenoxy]-2-propanol]
[1]; racemate, at the doses used
  nootrope und antidepressive Eigenschaften: keine aussagefähigen Beobachtungen
[2]; humans, low daily doses such as 2 mg and 4 mg p.o.
  cardiovaskuläre Effekte (ß-Blockade): keine cardiovaskulären Effekte
[2]; more than 100 inpatients, daily dose 2 mg p.o. compared with daily dose 4 mg p.o.
  anxiolytische Effekte: signifikante, mindestens ebenso potente anxiolytische Effekte
[3]
  Dosierung, bei der maximale Effekte (Hemmung der Hyperaktivität) erzielt werden: 0,01-0,1 mg/kg p.o.
[4]; [9]
  Sozialkontakte der rangniedrigsten Affen: Zunahme der Sozialkontakte
  ängstliches Verhaltensmuster der Affen, die in der Rangordnung am niedrigsten eingeordnet sind: signifikanten Reduktion des ängstlichen Verhaltensmuster
[5]; racemate, at the doses used
  nootrope und antidepressive Eigenschaften: keine aussagefähigen Beobachtungen
[6]
  Antagonismus am präsynaptischen Serotonin-1 B-Rezeptor: potenter selektiver Antagonist
[7]; group of 29 rats, 20 mg/kg p.o.
  Versuchstiere mit einem markanten Anstieg der Hebelbedienungshäufigkeit während der Schockphase: 50%
[7]; rats, 20 mg/kg p.o., shock phase
  Anstieg der Hebelbedienungshäufigkeit bei einzelnen Tieren: 300%
[7]; rats
  anxiolytische Wirkung im Geller-Test: starkes Anxiolytikum

## CC(C)NCC(O)COc1cccc2ccccc12 (stereo not shown) [Propranolol, reference compound]
[3]
  Dosierung, bei der maximale Effekte (Hemmung der Hyperaktivität) erzielt werden: 0,3 mg/kg p.o.
[4]; 0,5-10,0 mg/kg p.o.
  Sozialkontakte der Rhesusaffen mit niedrigem Rangstatus: relativ wenig beeinflusst
[6]
  Selektivität (5-HT1B gegenüber 5-HT1A): weniger selektiv
[7]; rats, 20 mg/kg p.o.
  Verhaltensänderung im Fussschocktest: keiner signifikanten Verhaltensänderung

## CC(C)NCC(O)COc1ccccc1-n1cccc1 (single isomer, unassigned; (+)) [(+)-1-Isopropylamino-3-[o-(pyrrol-1-yl)-phenoxy]-2-propanol]
[1]; 1 mg/kg p.o., against placebo, deficit range = delay after which discrimination success is < 75 %
  Erfolgsrate im Defizitbereich: signifikant erhöhte Erfolgsrate
[1]; rhesus monkeys
  Motivation und Antrieb (antidepressive Eigenschaften): deutliche Motivations-und Antriebssteigerungen
[1]; rhesus monkeys, average increase
  Erhöhung der Vorzögerungszeiten für den Defizitbereich: 20 Sekunden
[2]; expected for the (+)-enantiomer, not tested
  cardiovaskuläre Effekte (ß-Blockade): Entsprechendes
[4]; [10]
  Sozialkontakte der rangniedrigsten Affen: nahmen sie aktiv soziale Kontakte auf
  ängstliches Verhaltensmuster der Affen, die in der Rangordnung am niedrigsten eingeordnet sind: signifikanten Reduktion
[8]
  ^3H-Splperon-Bindung stratialer Dopamin-Rezeptoren: dosisabhängig Erhöhungen
[5]; rats
  Orientierungsleistungen (Fehlerquote; nootrope Wirkung): deutliche Verbesserung der Orientierungsleistungen
[5]; rats, compared with placebo animals
  Laufzeiten vom Start zum belohnten Ziel: signifikant verkürzten Laufzeiten
[7]; rats, dose from 3 mg/kg p.o.
  Versuchstiere mit einem markanten Anstieg der Hebelbedienungshäufigkeit während der Schockphase: ~80%
[7]; rats
  anxiolytische Wirkung im Geller-Test: starkes Anxiolytikum

## C=CCOc1ccccc1OCC(O)CNC(C)C (stereo not shown) [Oxprenolol, reference compound]
[4]; 0,3-3,0 mg/kg p.o.
  Sozialkontakte von Affen mit geringer Rangordnung: keine Steigerung der Sozialkontakte
[6]
  Selektivität (5-HT1B gegenüber 5-HT1A): weniger selektiv
